Values after ≈ are worked out from the molar mass of the structure shown. Where two headings read alike, the source gives them in different places.
Key:
[1] = tested on: 3 P. aeruginosa strains (APAE001, APAE002, APAE006); assay: Protein binding: fold change in MIC in the presence of 2% HSA and 0.05% AGP, Geomean of 3 strains; format: cell-based, Pseudomonas aeruginosa; conditions: MIC in the presence of 2% HSA and 0.05% AGP divided by MIC in the absence; Geomean of 3 P. aeruginosa strains (APAE001, APAE002, APAE006)
Description: The effect of human serum albumin (HSA) and α-1-acid glycoprotein (AGP) from human plasma, which are known to nonspecifically bind to certain antibiotics and thereby reduce their activity (Banéres-Roquet et al. 2009 “Use of a Surface Plasmon Resonance Method to Investigate Antibiotic and Plasma Protein Interactions” Antimicrob. Agents and Chemother. 53(4):1528-1531), was assessed against 3 P. aeruginosa strains (APAE001, APAE002, APAE006). APAE001 is Pseudomonas aeruginosa ATCC27853; APAE002 is a wildtype lab strain of Pseudomonas aeruginosa known as PAM1020 or PA01. APAE006 is a strain of […]/PA01 with efflux deletions: delta mexAB-oprM::CM delta CD-oprJ::Gm delta mexEF-oprN::omega Hg. Lomovskaya, 0 et al. 1999. Use of a Genetic Approach To Evaluate the Consequences of Inhibition of Efflux Pumps in P aeruginosa. Antimicrob. Agents Chemother. 43: 1340-1346.
The standard procedure described in Susceptibility Testing was utilized with one adjustment, specifically 2% HSA and 0.05% AGP were added to the cation adjusted Mueller-Hinton Broth. The MIC for each strain of interest was then assessed in the presence and absence of HSA/AGP. Following MIC determination, the fold change in MIC was determined for each individual strain by dividing the MIC in the presence of HSA/AGP by the MIC in the absence of HSA/AGP. The protein binding Geomean was then calculated using these 3 values.

[2] = tested on: bacterial isolates (clinical isolates and ATCC quality control strains); assay: Minimum Inhibitory Concentrations (MICs) by broth microdilution (CLSI susceptibility testing); format: cell-based; conditions: for Minimum Inhibitory Concentrations (MICs) APAE001: APAE001 is Pseudomonas aeruginosa ATCC27853
Description: Bacterial isolates were cultivated from −70° C. frozen stocks by overnight passages at 35° C. in ambient air on Mueller-Hinton agar (Beckton Dickinson, Franklin Lakes, N.J.). Clinical isolates tested were obtained from various geographically diverse hospitals in the US and abroad (Focus Diagnostics, Herndon, Va. and JMI, North Liberty, Iowa). Quality control strains were from the American Type Culture Collection (ATCC; Rockville, Md.).
Minimum Inhibitory Concentrations (MICs) were determined by the broth microdilution method in accordance with the Clinical and Laboratory Standards Institute (CLSI) guidelines. In brief, organism suspensions were adjusted to a 0.5 McFarland standard to yield a final inoculum between 3×10^5 and 7×10^5 colony-forming units (CFU)/mL. Drug dilutions and inocula were made in sterile, cation adjusted Mueller-Hinton Broth (Beckton Dickinson). An inoculum volume of 100 μL was added to wells containing 100 μL of broth with 2-fold serial dilutions of drug. All inoculated microdilution trays were incubated in ambient air at 35° C. for 18-24 h. Following incubation, the lowest concentration of the drug that prevented visible growth (OD600 nm<0.05) was recorded as the MIC. Performance of the assay was monitored by the use of laboratory quality-control strains and levofloxacin, a compound with a defined MIC spectrum, in accordance with CLSI guidelines.

[3] = APAE1096 is a clinical isolate, broth microdilution, read-out: Minimum Inhibitory Concentrations (MICs) APAE1096
[4] = Pseudomonas aeruginosa, APAE002 is a wildtype lab strain of Pseudomonas aeruginosa known as PAM1020 or PA01, broth microdilution, read-out: Minimum Inhibitory Concentrations (MICs) APAE002
[5] = Pseudomonas aeruginosa, ATCC27853, APAE001 is Pseudomonas aeruginosa ATCC27853, broth microdilution, read-out: Minimum Inhibitory Concentrations (MICs) APAE001
[6] = APAE1096 is a clinical isolate, broth microdilution
[7] = APAE002 is a wildtype lab strain of Pseudomonas aeruginosa known as PAM1020 or PA01, broth microdilution

| Compound | Protein Binding PB (Geomean of fold change in MIC) [1] | MIC [2, 3] [µg/mL] | MIC [2, 4] [µg/mL] | MIC [2, 5] [µg/mL] | Minimum Inhibitory Concentrations (MICs) APAE1096 [2, 6] | also measured |
| --- | --- | --- | --- | --- | --- | --- |
| CC(C)(N)[C@H](NC(=O)c1ccc(C#CC#CC2C[C@H]2C(O)CO)cc1)C(=O)NO (mixture of isomers) [Compound 25, N—((S)-3-amino-1-(hydroxyamino)-3-methyl-1-oxobutan-2-yl)-4-((2-(1,2-dihydroxyethyl)cyclopropyl)buta-1,3-diynyl)benzamide] | 11.5 | 1 to 8 (≈ 2.5 to 20 µM) | < 1 | < 1 |  |  |
| CC(C#CC#Cc1ccc(C(=O)N[C@H](C(=O)NO)C(C)(C)N)cc1)C(O)CO (single isomer, unassigned) [Compound 20A] | 2.0 | 8 to 16 (≈ 20.6 to 41.3 µM) | 1 to 8 (≈ 2.58 to 20.6 µM) | 1 to 8 (≈ 2.58 to 20.6 µM) |  |  |
| CC(C#CC#Cc1ccc(C(=O)N[C@H](C(=O)NO)C(C)(C)N)cc1)C(O)CO (single isomer, unassigned) [Compound 20B] | 1.0 |  |  |  |  |  |
| CC(C)(N)[C@H](NC(=O)c1ccc(C#CC#CC2C[C@H](O)[C@@H]2CO)cc1)C(=O)NO (single isomer, unassigned) [Compound 30A] | 2.5 |  | < 1 | < 1 | C (C = MIC's of greater than 8.0 μg/mL to 16.0 μg/mL) |  |
| CC(C)(N)[C@H](NC(=O)c1ccc(C#CC#CC2CC(O)[C@@H]2CO)cc1)C(=O)NO (single isomer, unassigned) [Compound 30B] | 3.2 |  |  |  | B (B = MIC's of greater than 1.0 μg/mL to 8.0 μg/mL) | Minimum Inhibitory Concentrations (MICs) APAE001 ([2]; broth microdilution): A (A = MIC's of 1.0 μg/mL or less); Minimum Inhibitory Concentrations (MICs) APAE002 [2, 7]: A (A = MIC's of 1.0 μg/mL or less) |
| CC(C)(N)[C@H](NC(=O)c1ccc(C#CC#CC2C[C@@H](O)[C@H]2CO)cc1)C(=O)NO (single isomer, unassigned) [Compound 31A] | 2.5 |  | 1 to 8 (≈ 2.5 to 20 µM) | 1 to 8 (≈ 2.5 to 20 µM) | C (C = MIC's of greater than 8.0 μg/mL to 16.0 μg/mL) |  |
| CC(C)(N)[C@H](NC(=O)c1ccc(C#CC#CC2CC(O)[C@H]2CO)cc1)C(=O)NO (single isomer, unassigned) [Compound 31B] | 3.2 |  |  |  | B (B = MIC's of greater than 1.0 μg/mL to 8.0 μg/mL) | Minimum Inhibitory Concentrations (MICs) APAE001 ([2]; broth microdilution): A (A = MIC's of 1.0 μg/mL or less); Minimum Inhibitory Concentrations (MICs) APAE002 [2, 7]: A (A = MIC's of 1.0 μg/mL or less) |
| CC(C)(N)[C@H](NC(=O)c1ccc(C#CC#CCO)cc1)C(=O)NO [Compound 1, (S)—N-(3-amino-1-(hydroxyamino)-3-methyl-1-oxobutan-2-yl)-4-(5-hydroxypenta-1,3-diynyl)benzamide] | 4.1 |  |  |  |  | MIC ([2]; Pseudomonas aeruginosa, ATCC27853, read-out: Minimum Inhibitory Concentrations (MICs) APAE001): < 1 µg/mL; MIC ([2]; Pseudomonas aeruginosa, read-out: Minimum Inhibitory Concentrations (MICs) APAE002): < 1 µg/mL; MIC ([2]; read-out: Minimum Inhibitory Concentrations (MICs) APAE1096): < 1 µg/mL |
| CC(C)(N)[C@H](NC(=O)c1ccc(C#CCO)cc1)C(=O)NO [Compound 2, (S)—N-(3-amino-1-(hydroxyamino)-3-methyl-1-oxobutan-2-yl)-4-(3-hydroxyprop-1-ynyl)benzamide] | 1.3 | 8 to 16 (≈ 26.2 to 52.4 µM) | 1 to 8 (≈ 3.28 to 26.2 µM) | < 1 |  |  |
| CC(C)(O)[C@H](NC(=O)c1ccc(C#CC#CCO)cc1)C(=O)NO [Compound 4, (S)—N-(3-hydroxy-1-(hydroxyamino)-3-methyl-1-oxobutan-2-yl)-4-(5-hydroxypenta-1,3-diynyl)benzamide] |  | 1 to 8 (≈ 3.03 to 24.2 µM) | < 1 | < 1 |  |  |
| CC(C)(N)[C@H](NC(=O)c1ccc(C#CC#CC(O)CCO)cc1)C(=O)NO (stereo partly drawn) [Compound 46, N—((S)-3-amino-1-(hydroxyamino)-3-methyl-1-oxobutan-2-yl)-4-(5,7-dihydroxyhepta-1,3-diyn-1-yl)benzamide] |  | 1 to 8 (≈ 2.68 to 21.4 µM) | < 1 | < 1 |  |  |
| CC(C)(O)[C@H](NC(=O)c1ccc(C#CC#CC(O)CO)cc1)C(=O)NO (stereo partly drawn) [Compound 60, 4-(5,6-dihydroxyhexa-1,3-diyn-1-yl)-N—((S)-3-hydroxy-1-(hydroxyamino)-3-methyl-1-oxobutan-2-yl)benzamide] |  |  |  | 1 to 8 (≈ 2.77 to 22.2 µM) |  |  |

Reference: patent US20150175530A1, “ANTIBACTERIAL AGENTS” (priority 2012, published 2015)
